{"source": "patent US20070077642A1", "about": "“Steroid receptor modulation of gene expression” (priority 2002, published 2007)", "key": {"A. nidulans": {"test_system": "A. nidulans", "test": "Growth test on plates at different ligand concentrations", "format": "cell-based, Aspergillus nidulans", "protocol": "Induction of estrogen receptor expression via the addition of […], 100 nM, and 1 μM of DES inducer to media plates harboring the Xgal substrate for LacZ in the transformed strain: A. nidulans argB2, riboA1, pyrG 89, pyroA4. FIG. 6. […] Activation of the reporter construct at 1 nM DES was shown in the transformed fungi."}, "[1]": {"test_system": "alcA promoter of A. nidulans", "details": "pRM alcA, induction with ethanol", "protocol": "To test the different inducer concentrations the strains were harvested by filtration and aliquots were transferred to fresh media containing the different inducer concentrations and additionally grown for 8 hours. At the end mycelium was harvested by filtration and frozen in liquid nitrogen. For time curve experiments the strains were harvested and additionally grown for 24 hours and after 2, 4, 6, 8 and 24 hours samples were taken and frozen in liquid nitrogen. […] An equal amount of fungal cell mass has been transferred to fresh medium and aliquots have been subjected to induction by the agonists. After sampling at desired time points the wet cell pellet has been processed as described.\nNaPO4 buffer and glasbeads (0.75-1.0 mm) were added to the frozen mycelia and cells were destroyed by the use of the Hybaid RiboLyser. Cell debris was separated by centrifugation and the supernatant was used for enzyme assays Protein concentration was determined using the BCA assay of Pierce and the specific β-galactosidase activity was determined by the use of the protocol of Invitrogen.\nβ-gal activity in each pERE constructs were assayed after induction with 1 nM DES. The alcA expression was also assayed for comparison."}}, "note": "Where two headings read alike, the source gives them in different places."}
{"smiles": "CC/C(=C(/CC)c1ccc(O)cc1)c1ccc(O)cc1", "note": "[DES, diethylstilbestrol]", "values": [{"measurement": "growth of strains transformed with reporter constructs", "setting": "A. nidulans; strains transformed with reporter constructs, 100 nM DES", "value": "strong growth inhibition"}, {"measurement": "growth of strains transformed with the hER", "setting": "A. nidulans; strains transformed with the hER, 1 nM DES", "value": "Growth inhibition"}, {"measurement": "effect on growth of a wild type strain", "setting": "A. nidulans; wild type strain, DES concentrations up to 20 μM", "value": "do not affect the growth"}]}
{"smiles": "CCO", "note": "[ethanol]", "values": [{"measurement": "Inducibility", "setting": "[1]; 24 h level over time 0 level", "value": 16.23}, {"measurement": "β-gal activity", "setting": "[1]; time 2 hours", "value": 506.66, "unit": "units per mg protein"}, {"measurement": "β-gal activity", "setting": "[1]; time 4 hours", "value": 714.43, "unit": "units per mg protein"}, {"measurement": "β-gal activity", "setting": "[1]; time 6 hours", "value": 1327.44, "unit": "units per mg protein"}, {"measurement": "β-gal activity", "setting": "[1]; time 8 hours", "value": 1431.02, "unit": "units per mg protein"}, {"measurement": "β-gal activity", "setting": "[1]; time 24 hours", "value": 6082.59, "unit": "units per mg protein"}]}
